Data on five compounds can be found in US20220054532A1, “VETERINARY COMPOSITIONS AND METHODS OF USE THEREFOR” (priority 2019, published 2022).

Common to all, as to type: in vivo
Data set [1] concerns dogs suffering from cognitive dysfunction syndrome. In words: Example 2: cognitive decline, Cognitive Dysfunction Screening Checklist. Particulars: for Average Final Score: day 60, BID. The source says: (§1) This example examines the ability of embodiments of the invention versus Anipryl® to treat cognitive decline.
The patient group is twenty dogs suffering from cognitive dysfunction syndrome, as determined by the Cognitive Dysfunction Screening Checklist. See G. Landsberg et al., 2003 HANDBOOK OF BEHAVIOR PROBLEMS OF THE DOG AND CAT (Elsevier Science Limited) (2003). The twenty dogs are broken into five groups of four dogs. The first group receives Anipryl® as the sole active agent; the second group receives a composition comprising HMW HA as the sole active agent; the third group receives a composition comprising CBD as the sole active agent; the fourth group receives a composition comprising HMW HA and CBD as the active agents; and the fifth group receives a composition comprising HMW HA, CBD, nicotinamide adenine dinucleotide (“NAD”), and phosphatidylserine as the active agents.
(§2) Each composition is administered for a period of sixty (60) days, twice per day (“BID”). The owner completes the Checklist on days 0 (“Initial Score”), 15, 30, 45, and 60 (“Final Score”) of treatment.
Each group is evaluated and Checklist scores averaged. The following scores are observed and the results depicted in FIG. 2: […]

Data set [2] has the same test system. Nature of the data set: Example 10: cognitive decline, Cognitive Dysfunction Screening Checklist (CBD Complex). Particulars: for Average Final Score: day 60, BID.
Text: as §1
The patient group is twenty dogs suffering from cognitive dysfunction syndrome, as determined by the Cognitive Dysfunction Screening Checklist. See G. Landsberg et al., 2003 HANDBOOK OF BEHAVIOR PROBLEMS OF THE DOG AND CAT (Elsevier Science Limited) (2003). The twenty dogs are broken into five groups of four dogs. The first group receives Anipryl® as the sole active agent; the second group receives a composition comprising HMW HA as the sole active agent; the third group receives a composition comprising CBD as the sole active agent; the fourth group receives a composition comprising HMW HA and CBD Complex as the active agents; and the fifth group receives a composition comprising HMW HA, CBD Complex, nicotinamide adenine dinucleotide (“NAD”), and phosphatidylserine as the active agents.
as §2
Each group is evaluated and Checklist scores averaged. The following scores are observed and the results depicted in FIG. 10: […]

Data set [3] has as its system dogs suffering from heart failure. Nature of the data set: Example 7: heart failure in dogs. Particulars: heart failure scale 1 (few to no clinical signs) to 10 (severe). The text has this: This example examines the ability of embodiments of the invention versus enalapril to treat heart failure.
The patient group is twenty-four dogs suffering from heart failure.
The patient group is broken into six groups of four dogs. The first group receives enalapril as the sole active agent; the second group receives a composition comprising enalapril and Lasix®; the third group receives a composition comprising HMW HA as the sole active agent; the fourth group receives a composition comprising CBD as the sole active agent; the fifth group receives a composition comprising HMW HA and CBD as the active agents; and the sixth group receives a composition comprising HMW HA, CBD, liposomal CoQ10, hawthorn berry, and ginko biloba as the active agents.
Each composition is administered for a period of ninety (90) days, BID. Each animal is evaluated on days 0 (“Initial Score”), 30, 60, and 90 (“Final Score”) of treatment. The results are averaged and characterized on a scale of 1 (few to no clinical signs of heart failure) to 10 (severe heart failure).
The following canine scores are observed and the results depicted in FIG. 7: […]

For data set [4], the system named is cats suffering from GI-specific inflammation. In words: Example 3: GI-specific inflammation, owner-rated symptom reduction (feline). Particulars: symptom reduction score 0 (no reduction) to 4 (resolution of symptoms). The text has this:
(§3) This example examines the ability of embodiments of the invention versus Pepcid® to treat unwanted GI-specific inflammation characterized by gastritis, reflux, vomiting, diarrhea, and inappetence.
(§4) The first patient group is twenty dogs suffering from GI-specific inflammation. The second patient group is twenty cats suffering from GI-specific inflammation. Each patient group is broken into five groups of four animals. The first groups receive Pepcid® as the sole active agent; the second groups receive a composition comprising HMW HA as the sole active agent; the third groups receive a composition comprising CBD as the sole active agent; the fourth groups receive a composition comprising HMW HA and CBD as the active agents; and the fifth groups receive a composition comprising HMW HA, CBD, and glutathione as the active agents.
(§5) Each composition is administered for a period of twenty-eight (28) days, BID. The owner observes potential reduction of symptoms at the end of treatment and rates the reduction as no reduction (score of 0), mild reduction (score of 1), moderate reduction (score of 2), significant reduction (score of 3), or resolution of symptoms (score of 4).
The following feline scores are observed and the results depicted in FIG. 3b: […]

For data set [5] the test system is unchanged. Nature of the data set: Example 11: GI-specific inflammation, owner-rated symptom reduction. Particulars: species not given, symptom reduction score 0 to 4.
Text: as §3
as §4, with “and CBD Complex as the” for “and CBD as the”, “HMW HA, CBD Complex, and glutathione” for “HMW HA, CBD, and glutathione”
as §5

The subject of data set [6] is dogs suffering from GI-specific inflammation. Nature of the data set: Example 3: GI-specific inflammation, owner-rated symptom reduction (canine). Particulars: symptom reduction score 0 (no reduction) to 4 (resolution of symptoms).
Text: as §3, §4, §5
The following canine scores are observed and the results depicted in FIG. 3a: […]

Data set [7] shares this test system. Nature of the data set: Example 11: GI-specific inflammation, owner-rated symptom reduction (canine, CBD Complex). Particulars: canine (FIG. 11a), symptom reduction score 0 (no reduction) to 4 (resolution of symptoms).
Text: as §3
as §4, with “and CBD Complex as the” for “and CBD as the”, “HMW HA, CBD Complex, and glutathione” for “HMW HA, CBD, and glutathione”
as §5

For data set [8], the system named is dogs with a history of severe, chronic skin issues, atopy, pruritis, yeast overgrowth, and/or infection. In words: Example 16: skin conditions (itch score) and side effects in dogs (CBD Complex). Particulars: dogs with skin conditions; 60 days BID. The source says:
(§6) This example examines the ability of embodiments of the invention versus prednisone to treat skin conditions.
(§7) The patient group is twenty-four dogs with a history of severe, chronic skin issues, atopy, pruritis, yeast overgrowth, and/or infection, as diagnosed by their referring veterinarian. The patient group is broken into six groups of four animals. The first group receives prednisone as the sole active agent; the second group receives a composition comprising prednisone and HMW HA as the active agents; the third group receives a composition comprising HMW HA as the sole active agent; the fourth group receives a composition comprising CBD as the sole active agent; the fifth group receives a composition comprising HMW HA and CBD Complex as the active agents; and the sixth group receives a composition comprising HMW HA, CBD Complex, quercetin, and nettles as the active agents.
(§8) Each composition is administered for a period of sixty (60) days, BID. Each dog is evaluated on days 0 (“Initial Score”), 20, 40, and 60 (“Final Score”) of treatment. The results are averaged and characterized on a scale of 0 (no itching—normal dog), 2 (very mild itching—only occasional episodes), 4 (mild itching), 6 (moderate itching—regular episodes), 8 (severe itching—prolonged episodes), to 10 (extremely severe itching—almost continuous).

The test system is the same in data set [9]. In words: Example 8: skin conditions (itch score) and side effects in dogs. Details: Average Side Effect Score: scale not given here.
Text: as §6
as §7, with “CBD” for “CBD Complex”, “CBD,” for “CBD Complex,”
as §8
The following scores are observed and the results depicted in FIG. 8: […]

Data set [10] has as its system dogs suffering from osteoarthritis. In words: Example 9: pain relief and side effects in canine osteoarthritis (CBD Complex). Particulars: dogs with osteoarthritis, 4 weeks of administration, group average. The text has this:
(§9) This example examines the ability of various compositions to minimize pain and examines the level of adverse side effects of each composition.
(§10) At the outset of the study, participants receive a full physical examination, including weight measurement, thigh circumference, and CBC/blood chemistries. Because osteoarthritis is not only a disease of pain, but one characterized by behavioral, appetite, anxiety/aggression, family socialization, and sleep aberrations, the pet's owners are familiarized with the pain scale (canine orthopedic index) and additional behavioral assessment log.
(§11) The patient group is twenty-four dogs suffering from osteoarthritis, broken into eight groups of three dogs. The first group receives a control composition with no active agent; the second group receives a composition comprising HA as the sole active agent; the third group receives a composition comprising HMW HA as the sole active agent; the fourth group receives a composition comprising CBD as the sole active agent; the fifth group receives a composition comprising HA and CBD as the active agents; the sixth group receives a composition comprising HMW HA and CBD Complex as the active agents; the seventh group receives a composition comprising Rimadyl as the active agent; and the eighth group receives a composition comprising Meloxicam as the active agent.
(§12) Each composition is administered for a period of four (4) weeks. The owner completes the electronic log questionnaire each week. At the end of the 4-week study, participants have another full physical examination, including weight measurement, thigh circumference, and CBC/blood chemistries, with an exit interview of the owners to gain final impressions.
Each group is evaluated for pain scores and the scores averaged. The following scores are observed and the results depicted in FIG. 9: […]

Data set [11] has the same test system. In words: Example 1: pain relief and side effects in canine osteoarthritis. Particulars: dogs with osteoarthritis, 4 weeks of administration, group average.
Text: as §9, §10
as §11, with “CBD” for “CBD Complex”
as §12
Each group is evaluated for pain scores and the scores averaged. The following scores are observed and the results depicted in FIG. 1: […]

Regarding `C#CCN(C)[C@H](C)Cc1ccccc1` [Anipryl ®, Selegiline], the “Average Initial Score” value in [1] (day 0 (before treatment)) and in [2] (day 0 (before treatment)) was 3 each time. The “Average Final Score” value is 2 in [1], “as effective as HMW HA alone” in [1] (listed as Anipryl®), 2 in data set [2] and “as effective as HMW HA alone” in data set [2] (listed as Anipryl®).
Consider `CCOC(=O)[C@H](CCc1ccccc1)N[C@@H](C)C(=O)N1CCC[C@H]1C(=O)O` [Enalapril], for which, in [3] (day 0), the “Initial Score” value came to 8. Moreover, the “Final Score” value in data set [3] (day 90, BID) turned out to be 5.
In the case of `NC(N)=Nc1nc(CSCCC(N)=NS(N)(=O)=O)cs1` [Pepcid ®, Famotidine], the “Final Score” value in data set [4] (after 28 days BID), in data set [5] (after 28 days BID), in [6] (after 28 days BID) and in data set [7] (after 28 days BID) was 1 each time. The “Initial Score” value in data set [4] (initial), in data set [5] (initial), in data set [6] (initial) and in [7] (initial) was 0 each time.
On to `C[C@]12C=CC(=O)C=C1CC[C@@H]1[C@@H]2C(=O)C[C@@]2(C)[C@H]1CC[C@]2(O)C(=O)CO` [Prednisone], for which the “Average Side Effect Score” value in data set [8] was determined as 17; in data set [9] (dogs with skin conditions, 60 days BID), 17. In addition, the “Initial Itch Score” value in [9] (itch scale 0 (no itching) to 10 (extremely severe), day 0) came out at 9. Besides, in data set [9] (itch scale 0 (no itching) to 10 (extremely severe), day 60, BID), the “Final Itch Score” value stood at 6.
As for hyaluronic acid [HA Alone], the “Average Pain Score” value in data set [10] was 18; in [10] (listed as HA alone), “only slightly reduce pain”; in [11] it was 18; in data set [11] (listed as HA alone), “only slightly reduce pain”. Besides, the “Average Side Effect Score” value in [10] is given as 6; in [10] (listed as HA alone), “low degree of adverse side effects”; in [11] it was 6; in data set [11] (listed as HA alone) it was “low degree of adverse side effects”.
